{"source": "the Kinase Knowledgebase extract (Sharma et al. 2016)", "key": {"MAPK14 (human) [1]": {"biological_target": "MAPK14 (human) (UniProt Q16539)", "sequence (Q16539 whole entry, looked up)": "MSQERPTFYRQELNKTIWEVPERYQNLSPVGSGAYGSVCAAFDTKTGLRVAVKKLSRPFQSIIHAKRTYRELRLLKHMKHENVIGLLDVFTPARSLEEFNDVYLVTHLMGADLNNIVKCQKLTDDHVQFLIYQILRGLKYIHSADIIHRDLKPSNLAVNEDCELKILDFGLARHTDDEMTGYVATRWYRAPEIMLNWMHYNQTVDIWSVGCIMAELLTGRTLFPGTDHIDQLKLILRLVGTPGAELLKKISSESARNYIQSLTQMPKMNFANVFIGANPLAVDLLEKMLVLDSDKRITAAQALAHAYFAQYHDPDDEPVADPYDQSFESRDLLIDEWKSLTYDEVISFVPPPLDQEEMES", "experiment": "Inhibition of LPS Stimulated TNF Production by U937 Cells", "conditions": "for inhibition: concentration not given here"}, "MAPK14 (human) [2]": {"biological_target": "MAPK14 (human) (UniProt Q16539)", "experiment": "Inhibition of MAPK14 Kinase Activity by PHAS-I Assay", "conditions": "for inhibition: concentration not given here"}}}
{"smiles": "Cc1cc(C)c(NC(=O)NCCc2[nH]nc(-c3ccc(F)cc3)c2-c2ccncc2)c(C)c1", "values": [{"measurement": "inhibition", "setting": "MAPK14 (human) [1]", "value": 47, "unit": "%"}, {"measurement": "inhibition", "setting": "MAPK14 (human) [2]", "value": 57, "unit": "%"}]}
{"smiles": "COc1ccc(OC)c(NC(=O)NCCc2[nH]nc(-c3ccc(F)cc3)c2-c2ccncc2)c1", "values": [{"measurement": "IC50", "setting": "MAPK14 (human) [1]", "value": 880, "unit": "nM"}, {"measurement": "inhibition", "setting": "MAPK14 (human) [2]", "value": 76, "unit": "%"}]}
{"smiles": "CCCCCCCCOc1cccc(NC(=O)Cn2nc(-c3ccc(F)cc3)c(-c3ccncc3)c2C)c1", "values": [{"measurement": "IC50", "setting": "MAPK14 (human) [1]", "value": "> 10000", "unit": "nM"}, {"measurement": "inhibition", "setting": "MAPK14 (human) [2]", "value": 86, "unit": "%"}]}
{"smiles": "C[C@H](NS(=O)(=O)C[C@@]12CC[C@H](CC1=O)C2(C)C)c1[nH]nc(-c2ccc(F)cc2)c1-c1ccncc1", "values": [{"measurement": "inhibition", "setting": "MAPK14 (human) [1]", "value": 60, "unit": "%"}, {"measurement": "IC50", "setting": "MAPK14 (human) [2]", "value": 160, "unit": "nM"}]}
{"smiles": "Cc1c(-c2ccncc2)c(-c2ccc(F)cc2)nn1CC(=O)Nc1ccccc1Sc1ccc([N+](=O)[O-])cn1", "values": [{"measurement": "inhibition", "setting": "MAPK14 (human) [1]", "value": 18, "unit": "%"}, {"measurement": "inhibition", "setting": "MAPK14 (human) [2]", "value": 90, "unit": "%"}]}
{"smiles": "CCOC(=O)COc1cccc(NC(=O)Cn2nc(-c3ccc(F)cc3)c(-c3ccncc3)c2C)c1", "values": [{"measurement": "inhibition", "setting": "MAPK14 (human) [1]", "value": 36, "unit": "%"}, {"measurement": "inhibition", "setting": "MAPK14 (human) [2]", "value": 83, "unit": "%"}]}
{"smiles": "O=C(NCCc1[nH]nc(-c2ccc(F)cc2)c1-c1ccncc1)Nc1ccccc1-c1ccccc1", "values": [{"measurement": "inhibition", "setting": "MAPK14 (human) [1]", "value": 35, "unit": "%"}, {"measurement": "inhibition", "setting": "MAPK14 (human) [2]", "value": 63, "unit": "%"}]}
{"smiles": "Cc1c(-c2ccncc2)c(-c2ccc(F)cc2)nn1CC(=O)N1CCCN(C)CC1", "values": [{"measurement": "inhibition", "setting": "MAPK14 (human) [1]", "value": 24, "unit": "%"}, {"measurement": "inhibition", "setting": "MAPK14 (human) [2]", "value": 51, "unit": "%"}]}
{"smiles": "O=C(NCCc1[nH]nc(-c2ccc(F)cc2)c1-c1ccncc1)N1CCOCC1", "values": [{"measurement": "inhibition", "setting": "MAPK14 (human) [1]", "value": 34, "unit": "%"}, {"measurement": "inhibition", "setting": "MAPK14 (human) [2]", "value": 86, "unit": "%"}]}
{"smiles": "O=S(=O)(NCCc1[nH]nc(-c2ccc(F)cc2)c1-c1ccncc1)c1ccc(Cl)c(Cl)c1", "values": [{"measurement": "inhibition", "setting": "MAPK14 (human) [1]", "value": 36, "unit": "%"}, {"measurement": "IC50", "setting": "MAPK14 (human) [2]", "value": 330, "unit": "nM"}]}
{"smiles": "Cc1c(-c2ccncc2)c(-c2ccc(F)cc2)nn1CC(=O)N[C@@H](C)C1CCCCC1", "values": [{"measurement": "inhibition", "setting": "MAPK14 (human) [1]", "value": 38, "unit": "%"}, {"measurement": "inhibition", "setting": "MAPK14 (human) [2]", "value": 64, "unit": "%"}]}
{"smiles": "O=C(NCCc1[nH]nc(-c2ccc(F)cc2)c1-c1ccncc1)c1ccccc1C(F)(F)F", "values": [{"measurement": "inhibition", "setting": "MAPK14 (human) [1]", "value": 27, "unit": "%"}, {"measurement": "inhibition", "setting": "MAPK14 (human) [2]", "value": 54, "unit": "%"}]}
{"smiles": "O=S(=O)(/C=C/c1ccccc1)NCCc1[nH]nc(-c2ccc(F)cc2)c1-c1ccncc1", "values": [{"measurement": "inhibition", "setting": "MAPK14 (human) [1]", "value": 10, "unit": "%"}, {"measurement": "inhibition", "setting": "MAPK14 (human) [2]", "value": 58, "unit": "%"}]}
{"smiles": "C[C@@H](NC(=O)c1ccc(F)cc1)c1[nH]nc(-c2ccc(F)cc2)c1-c1ccncc1", "values": [{"measurement": "inhibition", "setting": "MAPK14 (human) [1]", "value": 24, "unit": "%"}, {"measurement": "IC50", "setting": "MAPK14 (human) [2]", "value": 660, "unit": "nM"}]}
{"smiles": "CC(=O)Nc1ccc(S(=O)(=O)N[C@@H](C)c2[nH]nc(-c3ccc(F)cc3)c2-c2ccncc2)cc1", "values": [{"measurement": "inhibition", "setting": "MAPK14 (human) [1]", "value": 73, "unit": "%"}, {"measurement": "IC50", "setting": "MAPK14 (human) [2]", "value": 59, "unit": "nM"}]}
{"smiles": "CCN(Cc1ccncc1)C(=O)Cn1nc(-c2ccc(F)cc2)c(-c2ccncc2)c1C", "values": [{"measurement": "inhibition", "setting": "MAPK14 (human) [1]", "value": 2, "unit": "%"}, {"measurement": "inhibition", "setting": "MAPK14 (human) [2]", "value": 68, "unit": "%"}]}
{"smiles": "O=C(NCCc1[nH]nc(-c2ccc(F)cc2)c1-c1ccncc1)Nc1cccc(Cl)c1Cl", "values": [{"measurement": "inhibition", "setting": "MAPK14 (human) [1]", "value": 31, "unit": "%"}, {"measurement": "inhibition", "setting": "MAPK14 (human) [2]", "value": 68, "unit": "%"}]}
{"smiles": "O=S(=O)(NCCc1[nH]nc(-c2ccc(F)cc2)c1-c1ccncc1)c1cccs1", "values": [{"measurement": "inhibition", "setting": "MAPK14 (human) [1]", "value": 53, "unit": "%"}, {"measurement": "inhibition", "setting": "MAPK14 (human) [2]", "value": 87, "unit": "%"}]}
{"smiles": "COc1ccc(C2OCCN2C(=O)Cn2nc(-c3ccc(F)cc3)c(-c3ccncc3)c2C)cc1OC", "note": "(stereo not drawn)", "values": [{"measurement": "inhibition", "setting": "MAPK14 (human) [1]", "value": 18, "unit": "%"}, {"measurement": "inhibition", "setting": "MAPK14 (human) [2]", "value": 69, "unit": "%"}]}
{"smiles": "COc1ccc(Br)cc1S(=O)(=O)N[C@H](C)c1[nH]nc(-c2ccc(F)cc2)c1-c1ccncc1", "values": [{"measurement": "inhibition", "setting": "MAPK14 (human) [1]", "value": 86, "unit": "%"}, {"measurement": "IC50", "setting": "MAPK14 (human) [2]", "value": 24, "unit": "nM"}]}
{"smiles": "CCOC(=O)CCOC(=O)NCc1[nH]nc(-c2ccc(F)cc2)c1-c1ccncc1", "values": [{"measurement": "inhibition", "setting": "MAPK14 (human) [1]", "value": 5, "unit": "%"}, {"measurement": "inhibition", "setting": "MAPK14 (human) [2]", "value": 54, "unit": "%"}]}
{"smiles": "CCOC(=O)C(NC(=O)NCCc1[nH]nc(-c2ccc(F)cc2)c1-c1ccncc1)C(C)C", "note": "(stereo not drawn)", "values": [{"measurement": "inhibition", "setting": "MAPK14 (human) [1]", "value": 36, "unit": "%"}, {"measurement": "inhibition", "setting": "MAPK14 (human) [2]", "value": 79, "unit": "%"}]}
{"smiles": "COCCN(Cc1cccc(OC)c1)C(=O)Cn1nc(-c2ccc(F)cc2)c(-c2ccncc2)c1C", "values": [{"measurement": "inhibition", "setting": "MAPK14 (human) [1]", "value": 22, "unit": "%"}, {"measurement": "inhibition", "setting": "MAPK14 (human) [2]", "value": 37, "unit": "%"}]}
{"smiles": "CN(C)C(=O)NCCc1[nH]nc(-c2ccc(F)cc2)c1-c1ccncc1", "values": [{"measurement": "inhibition", "setting": "MAPK14 (human) [1]", "value": 52, "unit": "%"}, {"measurement": "inhibition", "setting": "MAPK14 (human) [2]", "value": 75, "unit": "%"}]}
